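Results reflect a 48-hour exposure of cells in 96-well plates to compound at five concentrations. The concentration for 50% growth inhibition is given as GI50.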 Activity calls are given as the source filed them. Cut-off read from the data, not from the text of the source: active = GI50 up to about 1.1 µM and inactive = higher.
Assays:
Test in all cases: NCI-60 cell line screen, 48 h
[1] = system: HOP-62
[2] = system: 786-0
[3] = system: SK-MEL-2
[4] = system: ACHN
[5] = system: MDA-MB-231
[6] = system: SR
[7] = system: KM12
[8] = system: OVCAR-8
[9] = system: MOLT-4
[10] = system: HCT-15
[11] = system: UO-31
[12] = system: HL-60
[13] = system: NCI-H226
[14] = system: NCI-H460
[15] = system: K562
[16] = system: OVCAR-3
[17] = system: NCI/ADR-RES
[18] = system: MDA-N

Compound | GI50 [1] | GI50 [2] | GI50 [3] | GI50 [4] | GI50 [5] | GI50 [6] | GI50 [7] | GI50 [8] | GI50 [9] | GI50 [10] [µM] | GI50 [11] | GI50 [12] | GI50 [13] | GI50 [14] | GI50 [15] | GI50 [16] | GI50 [17] | GI50 [18]
Cc1c(OCc2cccc3ccccc23)ccc2c(=O)cc(SCCN3CCOCC3)oc12 | > 100 µM (inactive) | > 100 µM (inactive) | > 100 µM (inactive) | > 100 µM (inactive) | > 100 µM (inactive) | > 100 µM (inactive) | > 100 µM (inactive) | > 100 µM (inactive) | > 100 µM (inactive) | > 100 | > 100 µM (inactive) | > 100 µM (inactive) | > 100 µM (inactive) | 6.53 µM (inactive) | > 100 µM (inactive) | > 100 µM (inactive) | > 100 µM (inactive) | 
Cc1ccc(/S(Cc2ccccc2)=N\S(=O)(=O)c2ccc(C)cc2)cc1 (stereo unspecified) | > 100 µM (inactive) | > 100 µM (inactive) |  | > 100 µM (inactive) |  | > 100 µM (inactive) | > 100 µM (inactive) | > 100 µM (inactive) | 5.92 µM (inactive) | 95.1 | > 100 µM (inactive) | > 100 µM (inactive) | > 100 µM (inactive) | > 100 µM (inactive) | > 100 µM (inactive) | > 100 µM (inactive) | 50 µM (inactive) | > 100 µM (inactive)
CCC(=O)NI1OC(=O)c2ccccc21 | > 100 µM (inactive) | > 100 µM (inactive) | > 100 µM (inactive) | > 100 µM (inactive) | > 100 µM (inactive) | 36.9 µM (inactive) | > 100 µM (inactive) | > 100 µM (inactive) | > 100 µM (inactive) | 43.5 | > 100 µM (inactive) | 47.3 µM (inactive) | > 100 µM (inactive) | > 100 µM (inactive) | 48.5 µM (inactive) | > 100 µM (inactive) | > 100 µM (inactive) | 
CC(=O)NC1C(Sc2ncn(C3OC(CO)C(O)C(O)C3NC(C)=O)n2)OC(CO)C(O)C1O (stereo unspecified) | > 100 µM (inactive) | > 100 µM (inactive) | > 100 µM (inactive) | > 100 µM (inactive) | > 100 µM (inactive) |  | > 100 µM (inactive) | > 100 µM (inactive) | > 100 µM (inactive) | > 100 |  | > 100 µM (inactive) |  | > 100 µM (inactive) |  | > 100 µM (inactive) | > 100 µM (inactive) | > 100 µM (inactive)
COc1cc(/C=C2\CCC(C)C3C2=NN(C(C)=O)C3c2cc(OC)c(OC)c(OC)c2)cc(OC)c1OC (stereo unspecified) | > 59.2 µM (inactive) | > 79.6 µM (inactive) |  | 25.1 µM (inactive) | > 72.9 µM (inactive) | > 52.6 µM (inactive) | > 33 µM (inactive) | > 100 µM (inactive) | > 100 µM (inactive) | 99.8 |  | > 91.6 µM (inactive) | > 100 µM (inactive) | > 100 µM (inactive) | > 100 µM (inactive) | > 100 µM (inactive) |  | > 100 µM (inactive)
CCCCCCc1cc2cc(C(=O)Nc3ccc(F)cc3)c(=N)oc2cc1O | 3.28 µM (inactive) | 3.63 µM (inactive) | 3.13 µM (inactive) | 2.89 µM (inactive) |  | 2.62 µM (inactive) | 2.92 µM (inactive) | 1.58 µM (inactive) | 1.93 µM (inactive) | 2.51 | 3.36 µM (inactive) | 1.96 µM (inactive) |  | 3.51 µM (inactive) | 1.18 µM (inactive) | 3.48 µM (inactive) | 2.67 µM (inactive) | 3.57 µM (inactive)
CO[C@@]12C[C@@H](CNC(=O)c3cc(Br)c[nH]3)O[C@@H]1NC(=O)N2 | > 100 µM (inactive) | > 100 µM (inactive) | > 100 µM (inactive) | > 100 µM (inactive) | > 100 µM (inactive) |  | > 100 µM (inactive) | > 100 µM (inactive) |  | > 100 | > 100 µM (inactive) |  | > 100 µM (inactive) | > 100 µM (inactive) |  | > 100 µM (inactive) | > 100 µM (inactive) | 
S=C(Nc1ccccc1)c1ccc(CN2CCCCC2)s1 | 26.5 µM (inactive) | 17.6 µM (inactive) | 20.5 µM (inactive) | 45 µM (inactive) |  | 15.6 µM (inactive) | 17.8 µM (inactive) | 15.6 µM (inactive) | 16.1 µM (inactive) | 18.3 | 16.2 µM (inactive) | 14.9 µM (inactive) |  | 21.6 µM (inactive) | 13.8 µM (inactive) | 48.6 µM (inactive) | 28.6 µM (inactive) | 17.5 µM (inactive)
CCCCCCCCC[C@@H]1C[C@@H]2CCC3C(C(=O)OC)=C(C)N=C(N1)N32 (stereo partly specified) | 6.17 µM (inactive) | 4.22 µM (inactive) | 11.1 µM (inactive) | 16.1 µM (inactive) | 5.13 µM (inactive) | 3.91 µM (inactive) | 3.43 µM (inactive) | 4.79 µM (inactive) | 8.22 µM (inactive) | 16.5 | 15.3 µM (inactive) | 3.47 µM (inactive) | 6.98 µM (inactive) | 3.65 µM (inactive) | 5.25 µM (inactive) | 3.21 µM (inactive) | 18.7 µM (inactive) | 
CCCSc1ccc2[nH]c(N3C(=O)/C(=C/c4ccccc4)N=C3c3ccccc3)cc2c1 |  | 23.3 µM (inactive) | 0.391 µM (active) | 39.2 µM (inactive) |  | 10.5 µM (inactive) | 15.1 µM (inactive) | 19.5 µM (inactive) | 16.3 µM (inactive) | 19.2 | 42.9 µM (inactive) | 12.1 µM (inactive) |  |  | 14.2 µM (inactive) |  | 16.9 µM (inactive) | 10.2 µM (inactive)
O=[N+]([O-])/C(C(Cl)=C(Cl)Cl)=C1\Nc2ccc([N+](=O)[O-])cc2N1 | > 100 µM (inactive) | > 100 µM (inactive) | > 100 µM (inactive) | > 100 µM (inactive) | 45.2 µM (inactive) |  | > 100 µM (inactive) |  | 45.1 µM (inactive) | > 100 | 14.1 µM (inactive) |  | > 100 µM (inactive) | > 100 µM (inactive) | > 100 µM (inactive) | > 100 µM (inactive) | > 100 µM (inactive) | 75.3 µM (inactive)
CCNc1ncnc2nn[nH]c12 | > 100 µM (inactive) | > 100 µM (inactive) | > 100 µM (inactive) | > 100 µM (inactive) | > 100 µM (inactive) |  | > 100 µM (inactive) | > 100 µM (inactive) | > 100 µM (inactive) | > 100 | > 100 µM (inactive) | > 100 µM (inactive) | > 100 µM (inactive) |  | > 100 µM (inactive) | > 100 µM (inactive) | > 100 µM (inactive) | > 100 µM (inactive)
CCC(=O)C(CCN1CCC(N2C(=O)C(CCC#N)c3ccccc32)CC1)(c1ccccc1)c1ccccc1 (stereo unspecified) | 17.9 µM (inactive) | 12.3 µM (inactive) | 13.9 µM (inactive) | 15.9 µM (inactive) | 7.36 µM (inactive) | 0.0486 µM (active) | 13.4 µM (inactive) | 11.4 µM (inactive) | 4.56 µM (inactive) | 13.1 | 9.53 µM (inactive) | 4.67 µM (inactive) | 17.3 µM (inactive) | 11.3 µM (inactive) | 3.8 µM (inactive) | 10.9 µM (inactive) | 11.5 µM (inactive) | 
Nn1c(CNc2ccc(-c3nnc(Nc4ccc(Cl)cc4)n3N)cc2)nnc1Nc1ccc(Cl)cc1 | 34.1 µM (inactive) | > 100 µM (inactive) | > 100 µM (inactive) | > 100 µM (inactive) | > 100 µM (inactive) |  | > 100 µM (inactive) |  | 55.7 µM (inactive) | > 100 | 61.4 µM (inactive) |  | > 100 µM (inactive) | > 100 µM (inactive) | 67.9 µM (inactive) |  | > 100 µM (inactive) | 80.7 µM (inactive)
C[P+](c1ccccc1)(c1ccc(Cl)cc1)c1ccc(Cl)cc1 | 19.5 µM (inactive) | 31.3 µM (inactive) | 19.9 µM (inactive) | 29.1 µM (inactive) | 13.2 µM (inactive) |  |  | 14.7 µM (inactive) |  | 88.9 | 38 µM (inactive) |  | 24.3 µM (inactive) | 24.2 µM (inactive) | 11.2 µM (inactive) | 0.183 µM (active) | > 100 µM (inactive) | 
O=[N+]([O-])/C=C/c1ccc2ccccc2c1 | 5.53 µM (inactive) | 2.85 µM (inactive) | 22.6 µM (inactive) | 1.96 µM (inactive) | 3.82 µM (inactive) | 0.436 µM (active) | 1.77 µM (inactive) | 2.69 µM (inactive) |  | 2.22 | 7.41 µM (inactive) | 2.37 µM (inactive) | 7.89 µM (inactive) | 6.81 µM (inactive) | 3.78 µM (inactive) | 2.86 µM (inactive) | 4.27 µM (inactive) | 
CC(=O)OC[C@H]1O[C@@H](O[C@H]2[C@H](OC(C)=O)C=CO[C@@H]2COC(C)=O)C(OC(C)=O)[C@H]2OC(C)(C)O[C@H]21 (stereo partly specified) | > 100 µM (inactive) | > 100 µM (inactive) |  | > 100 µM (inactive) | > 100 µM (inactive) | 43.3 µM (inactive) | > 100 µM (inactive) | > 100 µM (inactive) | > 100 µM (inactive) | > 100 | > 100 µM (inactive) |  | > 100 µM (inactive) | > 100 µM (inactive) | > 100 µM (inactive) | > 100 µM (inactive) | > 100 µM (inactive) | 
CCOS(C)(=O)=O [METHANESULFONIC ACID ETHYL ESTER] |  | > 100 µM (inactive) | > 100 µM (inactive) | > 100 µM (inactive) | > 100 µM (inactive) |  | > 100 µM (inactive) | > 100 µM (inactive) | > 100 µM (inactive) | > 100 | > 100 µM (inactive) | > 100 µM (inactive) | > 100 µM (inactive) | > 100 µM (inactive) | > 100 µM (inactive) | > 100 µM (inactive) | > 100 µM (inactive) | > 100 µM (inactive)

— ChEMBL document CHEMBL1201862, “PubChem BioAssay data set” (2004)
